From US20130152227A1, “ENHANCED DISEASE […] INTRODUCTION OF NH3” (priority 2010, published 2013)
Like-named read-outs stand apart in the source and are kept apart here.

Assays:
NH3 = assay: RT-PCR / real-time qPCR of NH3 after foliar spray; type: in vivo, Oryza sativa L
Excerpt: (§1) To investigate the BTH- and INA-induced responses at the molecular level, we looked at the transcript expression levels of several rice defense-related genes, including PR1a, PR3, PR10, POX (peroxidase), and NH1. RT-PCR results of these genes for response to BTH treatment are shown in FIG. 5a and real-time quantitative PCR results in FIG. 5b. The input cDNA amounts were equalized first by using actin as the reference in FIG. 5a. Quantitative expression data in FIG. 5b are expressed as fold of actin gene expression. As expected, the NH3 levels in the nNT-NH3 plants (filled bar) are elevated by about 3- to 4-fold compared to Kit (open bar) control before treatment. […] Mock treatment appears also has effects on the NH3 levels.
(§2) For 10 mM BTH treatment, the commercial product Actigard (Syngenta) was first used for foliar spray on the rice plants. Pure BTH chemical […] (Wako) was subsequently used in place of Actigard. One mM of BTH and INA solutions were prepared in 0.05% Tween 20 for foliar spray.
(§3) Leaf samples were collected and frozen immediately in liquid nitrogen. Leaf samples were stored at −80° C. until use. Total RNA was extracted using the Trizol reagent (Sigma) according to the manufacturer's instruction. RNA was reverse-transcribed using reverse transcriptase Superscript (Invitrogen). Approximately 10 μg of RNA was used for each reverse transcription. RT-PCR was first performed with primers targeting an actin gene as the reference. An equal amount of cDNA input was then used for RT-PCR for NH3 or defense-related genes. RT-PCR for NH3 used primers NH3-RT1 (5′[…]3′; SEQ ID NO:29) and NH3-RT2 (5′[…]3; SEQ ID NO:30). RT-PCR for NTAP-NH3 used primers NH3-2 (5′[…]3; SEQ ID NO:31) and NTAP-5 (5′[…]3; SEQ ID NO:32). RT-PCR for NH1 used primers NH1-RT1 (5′[…]3; SEQ ID NO:33) and NH1-TAP2 (5′[…]3; SEQ ID NO:34). Genes PR1a (Os07g03710) and PR10 (Os12g36830) as markers for plants defense have been described before (Park et al., 2008).
(§4) Quantitative real time PCR were performed on a Bio-Rad CFX96 Real-Time System coupled to a C1000 Thermal Cycler (Bio-Rad). […]

[1] = tested on: rice plants (nNT-NH3, NTAP control, Kit); conditions: for lesion mimic spots / bleached areas on leaves: 1 mM foliar spray, one week
NH1 = assay: RT-PCR / real-time qPCR of NH1 after foliar spray; type: in vivo, Oryza sativa L; conditions: 1 mM BTH
Excerpt: as §1, §2, §3, §4

PR10 = assay: RT-PCR / real-time qPCR of PR10 after foliar spray; type: in vivo, Oryza sativa L
Excerpt: as §1, §2, §3
Quantitative real time PCR were performed on a Bio-Rad CFX96 Real-Time System coupled to a C1000 Thermal Cycler (Bio-Rad). For qPCR reactions, the Bio-Rad SsoFast EvaGreen Supermix was used. QPCR primers used are as follows: Actin-Q1 ([…]; SEQ ID NO:35) and Actin-Q2 ([…]; SEQ ID NO:36) for actin gene; NH1-RT3 (CTGATCCGTTTCCCTCGGA; SEQ ID NO:37) and NH1-RT4 ([…]; SEQ ID NO:38) for the NH1 gene; NH3-RT3 ([…]; SEQ ID NO:39) and NH3-RT4 ([…]; SEQ ID NO:40) for the NH3 gene; PR3-1 ([…]; SEQ ID NO:41) and PR3-2 ([…]; SEQ ID NO:42) for the PR3 gene; POX8.1-1 ([…]; SEQ ID NO:43) and POX8.1-2 (CATGGGCTTCCTGATCTG; SEQ ID NO:44) for the POX8.1 gene; and POX22.3-1 (ATCGTGTCGACGACGACAT; SEQ ID NO:45) and POX22.3-2 ([…]; SEQ ID NO:46) for the POX22.3 gene. QPCR reactions were run at 56° C. annealing for 12 sec and 95° C. for 8 sec for 40 cycles.

PR3 = assay: RT-PCR / real-time qPCR of PR3 after foliar spray; type: in vivo, Oryza sativa L; conditions: for PR3 expression induction: 1 mM BTH
Excerpt: as §1, §2, §3, §4

[2] = tested on: peroxidase genes POX8.1 and POX22.3; assay: RT-PCR / real-time qPCR of peroxidase genes after foliar spray; type: in vivo, Oryza sativa L
Excerpt: as §1, §2, §3, §4

PR1a = assay: RT-PCR / real-time qPCR of PR1a after foliar spray; type: in vivo, Oryza sativa L; conditions: 1 mM INA, Kit plants
Excerpt: as §1, §2
Leaf samples were collected and frozen immediately in liquid nitrogen. Leaf samples were stored at −80° C. until use. Total RNA was extracted using the Trizol reagent (Sigma) according to the manufacturer's instruction. […]
as §4

[3] = 1 mM BTH, both Kit and nNT-NH3 plants

Q: `c1ccc2snnc2c1` [BTH, benzothiadiazole] was tested. Which NH3 transcript levels (NH3; 1 mM BTH, Kit control plants, especially day 4 and day 8) did it give?
A: slightly reduced

Q: What about the NH3 levels (NH3; 1 mM BTH, nNT-NH3 plants) of the same molecule?
A: further modestly induced at day 1

Q: What about the “lesion mimic spots / bleached areas on leaves” value ([1]; Kit control plants) of the same molecule?
A: developed no lesion mimic spots at all

Q: And the cell death phenotype ([1]; 10 mM foliar spray, NTAP control plants (Ubi-1 promoter))?
A: completely clear of such cell death phenotype

Q: What about the “time to dry-out of whole leaves” value ([1]; 10 mM foliar spray, nNT-NH3 plants) of the same molecule?
A: 3 to 4 days

Q: And the NH1 expression levels (NH1; Kit plants)?
A: relatively unchanged

Q: What about the “NH1 level induction compared to untreated Kit” value (NH1; nNT-NH3 plants, one day after treatment) of the same molecule?
A: 2 fold

Q: And the NH1 level induction (NH1; nNT-NH3 plants, one day after treatment, vs untreated nNT-NH3)?
A: about 3.5 fold

Q: What about the PR10 expression induction (PR10; 1 mM BTH, Kit plants) of the same molecule?
A: up to 2 fold

Q: And the “PR10 expression induction over untreated Kit” value (PR10; 1 mM BTH, nNT-NH3 plants)?
A: ≤ 12 fold

Q: What about the “PR10 expression induction over untreated nNT-NH3” value (PR10; 1 mM BTH, nNT-NH3 plants) of the same molecule?
A: up to 51 fold

Q: What about the PR3 expression induction (PR3; Kit plants) of the same molecule?
A: up to 2 fold

Q: What about the PR3 expression induction (PR3; nNT-NH3 plants) of the same molecule?
A: up to 10 fold

Q: And the POX8.1 expression [2, 3]?
A: significantly induces

Q: What about the POX22.3 expression [2, 3] of the same molecule?
A: significantly induces

Q: Which results are given for `O=C(O)c1cc(Cl)nc(Cl)c1` [INA, 2,6-dichloroisonicotinic acid]?
A: PR1a expression (PR1a): slightly induces; levels of NH3 expression (NH3; 1 mM INA): slightly reduces; lesion mimic spots / bleached areas on leaves ([1]; Kit control plants): little effects; lesion mimic spots / bleached areas on leaves ([1]; nNT-NH3 plants): developed typical lesion-mimic spots, but no bleached areas on leaves; PR10 expression (PR10; 1 mM INA, Kit plants): slightly induces; PR3 expression (PR3; 1 mM INA, Kit plants): slightly induces; POX expression ([2]; 1 mM INA, Kit and nNT-NH3 plants): induces
